Values joined by “and” are separate entries in the source; they are usually repeats but may differ in a detail not shown here. Equal entries are not always repeated. Blank lines part the entries; values can stand above or below the compound they belong to.
Legend:
[1] = molecular target: crude AD brain extracts (tau seeds) in HEK293T tau biosensor cells (Homo sapiens, UniProt P10636); test: Tau biosensor cell seeding assay, screen with crude AD brain extracts; assay type: cell-based; settings: for Number of seeded aggregates in tau biosensor cells (normalized to confluence), Fig. 2e: 10 μM inhibitor on cells, seeds pre-incubated 16–18 h at 4 °C, individual replicates (n=3), DMSO control 10734.9/12808.5/11145.3; for Inhibition of seeding in biosensor cells: 10 μM screen
crude AD brain extracts (tau seeds) in HEK293T tau biosensor cells, sequence (P10636 623-695 limits assumed): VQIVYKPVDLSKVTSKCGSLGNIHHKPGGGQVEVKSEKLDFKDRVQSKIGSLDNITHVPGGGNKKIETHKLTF
Description: From the in silico screen, compounds were ranked and 46 were selected for further experimental validation based on the total binding energy of the ligand/fibril complex. The experimental assessment consisted of direct measures of fibril disassembly (Fig. 2d, e and Supplementary Table 3) and assessment of the seeding capability of the products of disassembled AD tau fibrils in a biosensor cell assay. Disaggregating molecules that produce active seeds are undesirable for therapy and are excluded from further study. HEK293T cells expressing CFP- or YFP-fused tau are transduced with exogenous AD tau fibrils. Externally applied AD-tau fibrils then induce the aggregation of the endogenous fluorescent tau, resulting in the formation of FRET-positive intracellular aggregates, visible as bright puncta by fluorescence microscopy (Fig. 2f). Automated image analysis of visible puncta provides an objective quantification of seeded aggregation. […] Although biosensors may be limited in reporting structural characteristics of fibril progeny, they offer exquisitely sensitive measures of tau seeding activity—the ability for fibrils to recruit monomeric protein into fibrillar form, which is thought to be the mechanism for tau spreading in AD.
Human autopsy samples were obtained by the Mayo Clinic Brain Bank and UCLA Pathology Department according to HHS regulations from patients consenting to autopsy. Samples were provided to the researchers of this study as anonymized tissues. For purification of paired helical filaments (PHFs) and straight filaments (SFs) from AD brain tissue, extractions were performed according to the previously published protocol without any modifications. […] For biosensor seeding assays with crude AD brain extracts, fresh-frozen tissue from neuropathologically confirmed AD cases was thawed and cut into a 0.2–0.3 g sections. Tissue was manually homogenized in a 15 ml disposable tube in 1 ml of 50 mM Tris, pH 7.4 with 150 mM NaCl, and then aliquoted to PCR tubes and sonicated in a cuphorn bath for 120 min under 30% power at 4 °C in a recirculating ice water bath, according to reference.
HEK293T cell lines stably expressing tau-K18 P301S-eYFP were obtained from Marc Diamond[25] and used without further characterization or authentication. […] Inhibitors were dissolved in DMSO. […] After twenty minutes, 10 µl of fibrils were added to 90 µl of tau biosensor cells. The number of seeded aggregates was determined by imaging the entire well of a 96-well plate in triplicate using a Celigo Image Cytometer (Nexcelom) in the YFP channel. The number of aggregates in a given image was determined using an ImageJ 2.3.0[50] script, which subtracts the background fluorescence from unseeded cells, and then counts the number of aggregates as peaks with fluorescence above the background using the built-in Particle Analyzer. The number of aggregates was normalized to the confluence of each well, and dose-response plots were generated by calculating the average and standard deviations from triplicate measurements.

[2] = molecular target: T1, AD brain-derived tau fibrils (Homo sapiens, UniProt P10636); test: Negative stain EM and quantitative EM (qEM) of tau fibrils after compound treatment; assay type: biochemical
T1 sequence (P10636 623-695 limits assumed): as above
Procedure: Negatively stained EM Grids were prepared by depositing 6 µl of sample on formvar/carbon-coated copper grids (400 mesh) for 3 min. The sample was rapidly wicked using filter paper without drying the grid and stained with 1% uranyl acetate for 2 min. […] Fibrils were counted from collections of 33 micrographs (in triplicate) for each experimental condition.

MTT cytotoxicity assay = assay type: cell-based; settings: mouse, Neuro2a cells, Neuro2a; final small molecule concentration 10 µM; 24 h; vehicle = 100% viable; individual replicates; read-out: MTT cell viability, compound alone, Fig. 3f
Procedure: (§1) In all, 90 µL of Neuro2a cells were plated on clear 96 well plates (Falcon 353072) at 6000 cells per well and given 24 h to adhere to the plate. Subsequent treatment consisted of PHF samples that were co-incubated with or without 100 µM of small molecules for 48 h at 37 °C, with 10 µl applied per well for a final small molecule concentration of 10 µM. After another 24-h incubation at 37 °C, 20 µl of Thiazolyl Blue Tetrazolium Bromide MTT dye (Sigma; 5 mg/ml stock in DPBS) was added to each well and further incubated for 3.5 h at 37 °C. The assay was arrested by replacement of all media with 100% DMSO and transferred to a SpectraMax MF reader. Background 700 nm readings were subtracted from the absorbance readings at 570 nm. Cells treated with 100% DMSO were designated as 0% viable and those treated only with vehicle were designated as 100% viable. Other well readings were normalized to these values.

Neuro2a cells = test: MTT cytotoxicity assay; assay type: cell-based
Procedure: as §1

AD-tau PHF = AD-tau PHF (Homo sapiens, UniProt P10636); test: CryoEM occupancy analysis of EGCG density; assay type: binding; settings: for Occupancy of density at Site 1 relative to fibril backbone / Occupancy of density at Site 2 relative to fibril backbone / Occupancy of density at Site 3 relative to fibril backbone: map low-pass filtered to 7 Å
AD-tau PHF, sequence (P10636 623-697 limits assumed): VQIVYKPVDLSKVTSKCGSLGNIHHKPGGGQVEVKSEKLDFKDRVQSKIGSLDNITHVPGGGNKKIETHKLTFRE

Brain-derived tau PHFs = Brain-derived tau PHFs (Homo sapiens, UniProt P10636); test: Dot blot analysis of EGCG time course (GT38, AT8); assay type: biochemical; settings: for GT38 dot blot signal (AD tau aggregates), Supp. Fig. 1 / AT8 dot blot signal (total hyperphosphorylated tau), Supp. Fig. 1: replicates
Brain-derived tau PHFs, sequence (P10636 623-695 limits assumed): as the sequence (P10636 623-695 limits assumed) above
Procedure: Samples were spotted onto nitrocellulose membrane, 20 µl were spotted for each condition, spotting 2 µl at a time and allowing to dry in between. The membrane was blocked for 1 h in TBST with 5% milk and washed with TBST three times. The membrane was then incubated with primary antibody (either anti-tau GT38 (obtained from Virginia Lee lab at UPenn) or anti-phospho-tau AT8 (cat # MN1020, lot # UL2906281Z), 1:4000 dilution in 2% milk/TBST solution) for 1 h, washed three times with TBST, incubated with horseradish peroxidase-conjugated secondary antibody (goat anti-mouse IgG H and L (HRP); 1:5000 Dilution in 2% milk/TBST), and washed three times in TBST. Signal was detected with Pierce ECL Plus Western Blotting Substrate (cat # 32132), and the blot was imaged with a Pharos FX Plus Molecular Imager.

[3] = molecular target: T1, AD brain-derived tau fibrils; test: Western blot of insoluble tau after compound treatment; assay type: biochemical; settings: 72 h at 37 °C
Procedure: Proteins were transferred from gel to nitrocellulose membrane using an iBLOT2 system. The membrane was blocked for 1 h in TBST with 5% milk and washed with TBST three times. The membrane was then incubated with primary antibody (anti-tau A0024 (Dako), 1:4000 dilution in 2% milk/TBST solution) for 1 h, washed three times with TBST, incubated with horseradish peroxidase-conjugated secondary antibody (goat anti-mouse IgG H and L (HRP); 1:5000 Dilution in 2% milk/TBST), and washed three times in TBST.

[4] = system: biosensor cells (HEK293T); test: Toxicity to biosensor cells under seeding assay conditions; assay type: cell-based; settings: under the assayed conditions (10 μM screen)
Procedure: HEK293T cell lines stably expressing tau-K18 P301S-eYFP were obtained from Marc Diamond[25] and used without further characterization or authentication. Cells were maintained in DMEM (Life Technologies, cat. 11965092) supplemented with 10% (vol/vol) FBS (Life Technologies, cat. A3160401), 1% penicillin/streptomycin (Life Technologies, cat. 15140122), and 1% Glutamax (Life Technologies, cat. 35050061) at 37 °C, 5% CO2 in a humidified incubator. […] Inhibitors were dissolved in DMSO. For seeding, inhibitor-treated seeds were sonicated in a cuphorn water bath for 3 min, and then mixed with 1 volume of […] (Life Technologies, cat. 11668027) prepared by diluting 1 µl of Lipofectamine in 19 µl of OptiMEM. After twenty minutes, 10 µl of fibrils were added to 90 µl of tau biosensor cells. The number of seeded aggregates was determined by imaging the entire well of a 96-well plate in triplicate using a Celigo Image Cytometer (Nexcelom) in the YFP channel. The number of aggregates in a given image was determined using an ImageJ 2.3.0[50] script, which subtracts the background fluorescence from unseeded cells, and then counts the number of aggregates as peaks with fluorescence above the background using the built-in Particle Analyzer. […]

- Number of seeded aggregates in tau biosensor cells (normalized to confluence), Fig. 2e ([1]; listed as EGCG-PBS): 1.145 and 4.487 and 178.587
- Inhibition of seeding in biosensor cells [1]: prevents the formation of any seeds
- Electron microscopy of tau fibrils treated with compound (qualitative) ([2]; negative stain EM): nearly gone after 24 h of incubation
- Quantitation of fibril number on EM images (qEM), Fig. 3c ([2]; relative scale, fibrils alone about 1, individual replicates of 33 micrographs): 0 and 0.009982
- Occupancy of density at Site 1 relative to fibril backbone (AD-tau PHF; 1-hour EGCG): 43%
- Occupancy of density at Site 2 relative to fibril backbone (AD-tau PHF; 1-hour EGCG): 44%
- Occupancy of density at Site 3 relative to fibril backbone (AD-tau PHF; 1-hour EGCG): 54%
- Occupancy of EGCG at Site 1 (AD-tau PHF; 3-h structure): 66%
- Occupancy of density at Site 1 relative to fibril backbone (AD-tau PHF; 3 hr. EGCG): 67%
- Occupancy of density at Site 2 relative to fibril backbone (AD-tau PHF; 3 hr. EGCG): 56%
- Occupancy of density at Site 3 relative to fibril backbone (AD-tau PHF; 3 hr. EGCG): 62%
- Time at which reduction in aggregate level begins (GT38 dot blot) (Brain-derived tau PHFs; 37 °C): 1 to 3 h
- GT38 dot blot signal (AD tau aggregates), Supp. Fig. 1 (Brain-derived tau PHFs; EGCG incubation 1 h at 37 °C, relative to 0 h): 0.7905 and 0.6952 and 0.7857
- AT8 dot blot signal (total hyperphosphorylated tau), Supp. Fig. 1 (Brain-derived tau PHFs; EGCG incubation 1 h at 37 °C): 0.7495 and 1.415 and 0.8474
- AT8 dot blot signal (total hyperphosphorylated tau), Supp. Fig. 1 (Brain-derived tau PHFs; EGCG incubation 3 h at 37 °C): 1.189 and 1.169 and 0.7844
- GT38 dot blot signal (AD tau aggregates), Supp. Fig. 1 (Brain-derived tau PHFs; EGCG incubation 3 h at 37 °C): 0.6381 and 0.5905 and 0.6857
- AT8 dot blot signal (total hyperphosphorylated tau), Supp. Fig. 1 (Brain-derived tau PHFs; EGCG incubation 6 h at 37 °C): 1.107 and 1.408 and 0.8471
- GT38 dot blot signal (AD tau aggregates), Supp. Fig. 1 (Brain-derived tau PHFs; EGCG incubation 6 h at 37 °C): 0.3571 and 0.3381 and 0.6238
- AT8 dot blot signal (total hyperphosphorylated tau), Supp. Fig. 1 (Brain-derived tau PHFs; EGCG incubation 24 h at 37 °C): 1.122 and 1.203 and 1.059
- GT38 dot blot signal (AD tau aggregates), Supp. Fig. 1 (Brain-derived tau PHFs; EGCG incubation 24 h at 37 °C): 0.2286 and 0.2714 and 0.4143
SMILES: O=C(O[C@@H]1Cc2c(O)cc(O)cc2O[C@@H]1c1cc(O)c(O)c(O)c1)c1cc(O)c(O)c(O)c1 [EGCG, Epigallocatechin gallate]
- viability at 24 h, 10 µM (MTT cytotoxicity assay): 102%
- Neuronal cytotoxicity of compound (Neuro2a cells; Neuro 2a (N2a) cells, MTT): no significant cytotoxicity
- MTT cell viability, compound alone, Fig. 3f (Neuro2a cells; Neuro2a, final small molecule concentration 10 µM, 24 h, vehicle = 100% viable, individual replicates, 10 µM): 108.947% and 94.1622%
- Reduction of insoluble tau by Western blot [3]: substantially reduce the amount of insoluble tau

- Number of seeded aggregates in tau biosensor cells (normalized to confluence), Fig. 2e [1]: 356.976 and 1174.27 and 1749.15
- Inhibition of seeding in biosensor cells [1]: effective inhibitor
SMILES: Oc1cccc(-c2c3nc(c(-c4cccc(O)c4)c4ccc([nH]4)c(-c4cccc(O)c4)c4nc(c(-c5cccc(O)c5)c5ccc2[nH]5)CC4)C=C3)c1 [FDA-A4, Temoporfin]
- Toxicity to biosensor cells [4]: toxic to biosensor cells

Reference: article PMC9481533, “Structure-based discovery of small molecules that disaggregate Alzheimer’s disease tissue derived tau fibrils in vitro” (Nature Communications, 2022)
